Test results as given in patent US20200261534A1, “NEW TREATMENTS OF MULTIPLE MYELOMA” (priority 2017, published 2020).
Read-outs that look alike come from different tables or passages of the source. Starred links: 1 amine or outer side, 2 acyl side, 3 side chain; linkers in the order of their positions; H or OH if unused. Positions of bridges follow the written chain, without caps; N, C: chain ends. Non-standard residues stand in square brackets, D forms with d. Residues, ends and D or L forms follow the SMILES beside them. ξ: configuration not given here. ξαMeNle(6-ylidene) = CC(CCCC=[*:3])(N[*:1])C(=O)[*:2]; X1 = CC(CCCCCCC=[*:3])(N[*:1])C(=O)[*:2]; Octanediyl(1,8) = C(CCCC[*:2])CCC[*:1]; ξC = NC(CS)C(=O)O

Columns and labels:
Format in all cases: cell-based
[1] = system: U266-LR7, lymphoblast (myeloma), selected for resistance to Melphalan
Procedure: U266-LR7, lymphoblast (myeloma), selected for resistance to Melphalan (Alvarez-Fernández et al. Clin Cancer Res. 2013 May 15; 19(10):2677-87).
(§1) All cell lines were cultured in incubator at 37° C. in RPMI-1640 (Sigma R8758) medium with 10% of fetal bovine serum inactivated (FBS) and 2 mM glutamine (Sigma G7513). During the amplification step cells were centrifuged and transferred into the culturing medium. Cells were counted in a Neubauer chamber after labelling with Tripan-Blue.
(§2) Cells were seeded at a density of 10000 cells/well in 100 μl of medium in 96 well plates. After 24 h, the compounds to be tested were added to calculate the dose/response curve at the starting concentration of 100 μM with serial dilutions (1:1). Controls are the untreated cells. Each experiment was performed in triplicate.
(§3) Cells were incubated with the peptidomimetic compound (S09) at the indicated concentrations during 24-72 h in incubator under CO2 atmosphere at 37° C. Then, cell viability was measured by means of MTT (3-(4,5-dimethylthiazol-2-yl)-2,5-diphenyltetrazolium bromide) assay. Stock solution of MTT (475989 Calbiochem) was 5 mg/ml in PBS. 1×.10 μl/well of MTT solution were added and the plate was incubated for 3-4 hr. The medium was discarded and 100 μl of extracting buffer (PBS 1×, 15% SDS, 50% […] N,N-Dimethylformamide, pH 4.7) were added to each well. Plates were incubated for 16 h at room temperature under orbital shaking. Absorbance at 570 nm was finally measured. As negative control (experiment noise) 3 wells were treated with 20 μl/well of a solution of SDS 10% in H2O.
(§4) Data analysis was performed calculating the percentage of cell viability normalized vs. the values of negative control, which was considered equal to 100%. The dose/response curve was fitted through the sigmoidal equation dose-response (variable slope) and the IC50 values were calculated as follow:
Y=Bottom+(Top−Bottom)/(1+10^{[(LogIC50−X)*HillSlope]},
U266-LR7, lymphoblast (myeloma), selected for resistance to Melphalan (Alvarez-Fernandez et al. Clin Cancer Res. 2013 May 15; 19(10):2677-87).
All cell lines were cultured in incubator at 37° C. in RPMI-1640 (Sigma R8758) medium with 10% of fetal bovine serum inactivated (FBS) and 2 mM glutamine (Sigma G7513).
as §2, with “of 10,000” for “of 10000”, “of 40” for “of 100”
as §3, with “compounds” for “compound (S09)”

[2] = system: BJ, fibroblast (normal skin); experiment: MTT viability assay, BJ; details: incubation 24-72 h, Table 3
Procedure: BJ, fibroblast (normal skin), ATCC® CRL-2522™
Cell lines A549, MCF-7 and RAMOS were cultured in incubator under CO2 (6%) at 37° C. in DMEM high glucose (Dulbecco's Modified Eagle Solution, Gibco-BRL 31966-21) medium with 10% fetal bovine serum inactivated (FBS) (Gibco-BRL 10106-169). Cell lines HL-60 and MM.1S were cultured in incubator at 37° C. in RPMI-1640 (Sigma R8758) medium with 10% of fetal bovine serum inactivated (FBS) and 2 mM glutamine (Sigma G7513). Cell lines BJ were cultured in incubator under CO2 (6%) at 37° C. in Eagle's Minimum Essential Medium (Sigma, M-2279) with 10% fetal bovine serum inactivated (FBS) (Gibco-BRL 10106-169).
During the amplification step and the assays adherent cells were rinsed with DPBS (Dulbecco's Phosphate Buffered Saline, Sigma D1283) three times and afterward treated for 5 minutes with trypsin ([…]) (Gibco-BRL, 15400054) in solution of DPBS at 37° C., and, once detached, transferred in the culturing medium. […] Cells were counted in a Neubauer chamber after labelling with Tripan-Blue. […]
(§5) Cells were incubated with the compounds at the indicated concentrations during 24-72 h in incubator under CO2 atmosphere at 37° C. Then, cell viability was measured by means of MTT (3-(4,5-dimethylthiazol-2-yl)-2,5-diphenyltetrazolium bromide) assay. […] Absorbance at 570 nm was finally measured. […]

[3] = system: NCI-H929, lymphoblast (myeloma); experiment: MTT viability assay, NCI-H929; details: 24-72 h, Table 7, read-out: IC50 values in μM for S09
Procedure: NCI-H929, lymphoblast (myeloma), ATCC® CRL-9068™
as §1, §2
as §5, with “peptidomimetic compound (S09)” for “compounds”, “assay. Stock solution of MTT (475989 Calbiochem) was 5 mg/ml in PBS.” for “assay.”
as §4, with “follow: […]” for “follow:”

[4] = system: OPM-2, lymphoblast (myeloma); experiment: MTT viability assay, OPM-2; details: OPM2, 24-72 h, Table 7, read-out: IC50 values in μM for S09
Procedure: OPM-2, lymphoblast (myeloma), DSMZ No. ACC50
as §1, §2
as §5, with “peptidomimetic compound (S09)” for “compounds”, “assay. Stock solution of MTT (475989 Calbiochem) was 5 mg/ml in PBS.” for “assay.”
as §4, with “follow: […]” for “follow:”

[5] = system: MM144, lymphoblast (myeloma); experiment: MTT viability assay, MM144; details: 24-72 h, Table 7, read-out: IC50 values in μM for S09
Procedure: MM144, lymphoblast (myeloma), University of Salamanca
as §1, §2
as §5, with “peptidomimetic compound (S09)” for “compounds”, “assay. Stock solution of MTT (475989 Calbiochem) was 5 mg/ml in PBS.” for “assay.”
as §4, with “follow: […]” for “follow:”

[6] = system: U266, lymphoblast (myeloma); experiment: MTT viability assay, U266; details: 24-72 h, Table 7, read-out: IC50 values in μM for S09
Procedure: U266, lymphoblast (myeloma), ATCC® TIB196™
as §1, §2
as §5, with “peptidomimetic compound (S09)” for “compounds”, “assay. Stock solution of MTT (475989 Calbiochem) was 5 mg/ml in PBS.” for “assay.”
as §4, with “follow: […]” for “follow:”

[7] = U266LR7, 24 hr, Table 13, read-out: IC50 after 24 hr values
[8] = U266LR7, 72 hr, Table 14, read-out: IC50 after 72 hr values

CC[C@H](C)[C@H](NC(=O)[C@H](Cc1ccc(O)cc1)NC(=O)[C@H](C)NC(=O)C1CSCCCCCCCCSCC(NC(=O)[C@H](CCCCN)NC(=O)[C@@H]2CCCN2C(=O)[C@H](C)N)C(=O)N[C@@H](C(C)C)C(=O)N[C@@H]([C@@H](C)CC)C(=O)N[C@@H](CC(C)C)C(=O)N[C@@H](CCCCN)C(=O)N[C@@H](CCCCN)C(=O)N[C@@H](C)C(=O)N1)C(=O)N[C@@H](CC(C)C)C(=O)N[C@@H](CO)C(=O)O (stereo partly shown) [IDP-P1708160] (H-APK[ξC]VILKKA[ξC]AYILS-OH; linker 4-11 via Octanediyl(1,8); N-terminus and C-terminus assumed)
IC50 [1, 7]: 2.5 µM | IC50 [1, 8]: 2.5 µM

CC[C@H](C)[C@H](NC(=O)[C@H](Cc1ccc(O)cc1)NC(=O)[C@H](C)NC(=O)C1(C)CCCC=CCCCCCCC(C)(NC(=O)[C@H](CCCCN)NC(=O)[C@@H]2CCCN2C(=O)[C@H](C)N)C(=O)N[C@@H](C(C)C)C(=O)N[C@@H]([C@@H](C)CC)C(=O)N[C@@H](CC(C)C)C(=O)N[C@@H](CCCCN)C(=O)N[C@@H](CCCCN)C(=O)N[C@@H](C)C(=O)N1)C(=O)N[C@@H](CC(C)C)C(=O)N[C@@H](CO)C(=O)O (stereo partly shown) [S09, APKXVILKKAXAYILS—OH] (H-APK[X1]VILKKA[ξαMeNle(6-ylidene)]AYILS-OH; staple 4-11; N-terminus assumed)
IC50 [2]: 47 ± 0.2 µM | IC50 [3]: 3.6 µM | IC50 [4]: 4.8 µM | IC50 [5]: 6.8 µM | IC50 [6]: 7.5 µM | IC50 ([1]; U266LR7 (resistant to Melphalan), MTT, 24-72 h, Table 7, read-out: IC50 values in μM for S09): 9.7 µM

CC[C@H](C)[C@H](NC(=O)[C@H](Cc1ccc(O)cc1)NC(=O)[C@H](C)NC(=O)C1(C)CCCC=CCCCCCCC(C)(NC(=O)[C@H](CCCCN)NC(=O)[C@@H]2CCCN2C(=O)[C@H](C)N)C(=O)N[C@@H](C(C)C)C(=O)N[C@@H]([C@@H](C)CC)C(=O)N[C@@H](Cc2ccccc2)C(=O)N[C@@H](CCCCN)C(=O)N[C@@H](CCCCN)C(=O)N[C@@H](C)C(=O)N1)C(=O)N[C@@H](CC(C)C)C(=O)N[C@@H](CO)C(=O)O (stereo partly shown) [S14, APKXVIFKKAXAYILS—OH] (H-APK[X1]VIFKKA[ξαMeNle(6-ylidene)]AYILS-OH; staple 4-11; N-terminus assumed)
IC50 [1, 7]: 10 µM | IC50 [1, 8]: 10 µM
